In the test the test system is CD2F1 mice, intracerebral L1210 leukemia, survival T/C. As to the kind of experiment: NCI In Vivo Anticancer Drug Screen. Data for tumor model L1210 Leukemia (intracerebral) in CD2F1 (CDF1) mice. The note with it: higher = longer survival. The procedure: The antitumor activity of compounds was measured in mice bearing transplantable tumors. Survival or tumor size were measured and the results are expressed as the measurement made in the treated group (T) divided by the measurement made in the vehicle treated control group (C). The tumor model used in this assay is L1210 Leukemia (intracerebral) in CD2F1 (CDF1) mice

Setting [1] is: endpoint: median survival time, dose: 8.0 mg/kg/injection, schedule: Q01DX005 (ip), vehicle: saline + alcohol.
[2] abbreviates: endpoint: median survival time, dose: 16.0 mg/kg/injection, schedule: Q01DX005 (ip), vehicle: saline + alcohol.
[3] abbreviates: endpoint: median survival time, dose: 32.0 mg/kg/injection, schedule: Q01DX005 (ip), vehicle: saline + alcohol.
Where [4] appears, read: endpoint: median survival time, dose: 64.0 mg/kg/injection, schedule: Q01DX005 (ip), vehicle: saline + alcohol.
Where [5] appears, read: endpoint: median survival time, dose: 128.0 mg/kg/injection, schedule: Q01DX005 (ip), vehicle: saline + alcohol.

“And” between values parts separate entries of the source, which are not always exact repeats. Identical values can stand only once. Toxic doses and inconclusive results are not listed.

Consider `COC(=O)c1ccc(N=NN(C)C)cc1`, for which the T/C is 104 % of control under setting [1]; 106 % of control under setting [2]; 113 % of control under setting [3]; 120 % of control under setting [4]; 112 % of control under setting [5].
With `COc1ccc(CC2C(=O)NC(C)C(=O)N(C)C3C(=O)N(C)C(Cc4ccc(O)c(c4)Oc4ccc(cc4)C3O)C(=O)NC(C)C(=O)NC(C)C(=O)N2C)cc1` (stereo unspecified), the T/C was 101 % of control (endpoint: median survival time, dose: 0.12 mg/kg/injection, schedule: Q01DX009 (ip), vehicle: Klucel (hydroxypropylcellulose) (HPC)); 93 % of control and 117 % of control (endpoint: median survival time, dose: 0.13 mg/kg/injection, schedule: Q01DX009 (ip), vehicle: saline); 93 % of control and 101 % of control (endpoint: median survival time, dose: 0.25 mg/kg/injection, schedule: Q01DX009 (ip), vehicle: Klucel (hydroxypropylcellulose) (HPC)); 124 % of control and 91 % of control (endpoint: median survival time, dose: 0.25 mg/kg/injection, schedule: Q01DX009 (ip), vehicle: saline); 98 % of control and 100 % of control (endpoint: median survival time, dose: 0.5 mg/kg/injection, schedule: Q01DX009 (ip), vehicle: Klucel (hydroxypropylcellulose) (HPC)); 124 % of control and 111 % of control (endpoint: median survival time, dose: 0.5 mg/kg/injection, schedule: Q01DX009 (ip), vehicle: saline). In addition, the T/C is 97 % of control and 100 % of control (endpoint: median survival time, dose: 1.0 mg/kg/injection, schedule: Q01DX009 (ip), vehicle: Klucel (hydroxypropylcellulose) (HPC)); 104 % of control and 107 % of control (endpoint: median survival time, dose: 1.0 mg/kg/injection, schedule: Q01DX009 (ip), vehicle: saline); 109 % of control and 111 % of control (endpoint: median survival time, dose: 2.0 mg/kg/injection, schedule: Q01DX009 (ip), vehicle: saline).
Consider `COC(=O)c1cccc(N=NN(C)C)c1`, for which the T/C runs as follows: under setting [1], 104 % of control; under setting [2], 100 % of control; under setting [3], 104 % of control; under setting [4], 113 % of control; under setting [5], 117 % of control.
For `CC1C[C@@H](O)C(NC(=O)N(CCCl)N=O)[C@@H](O)C1` (stereo partly specified), the T/C is, setting by setting: (endpoint: mean survival time, dose: 6.0 mg/kg/injection, schedule: Q01DX001 (ip), vehicle: saline) 123 % of control; (endpoint: mean survival time, dose: 13.0 mg/kg/injection, schedule: Q01DX001 (ip), vehicle: saline) 154 % of control; (endpoint: mean survival time, dose: 20.0 mg/kg/injection, schedule: Q01DX001 (ip), vehicle: saline) 332 % of control; (endpoint: mean survival time, dose: 30.0 mg/kg/injection, schedule: Q01DX001 (ip), vehicle: saline) 186 % of control; (endpoint: mean survival time, dose: 45.0 mg/kg/injection, schedule: Q01DX001 (ip), vehicle: saline) 157 % of control.
With `CN(C)N=Nc1ccccc1C(=O)O`, the T/C by setting is: (endpoint: mean survival time, dose: 5.0 mg/kg/injection, schedule: Q01DX007 (ip), vehicle: other) 103 % of control; (endpoint: mean survival time, dose: 10.0 mg/kg/injection, schedule: Q01DX007 (ip), vehicle: other) 109 % of control; (endpoint: mean survival time, dose: 20.0 mg/kg/injection, schedule: Q01DX007 (ip), vehicle: other) 112 % of control; (endpoint: mean survival time, dose: 40.0 mg/kg/injection, schedule: Q01DX007 (ip), vehicle: other) 101 % of control; (endpoint: median survival time, dose: 4.0 mg/kg/injection, schedule: Q01DX005 (ip), vehicle: saline + alcohol) 105 % of control; under setting [1], 102 % of control. The T/C is 105 % of control under setting [2], 108 % of control under setting [3] and 97 % of control under setting [4].
`Nc1ncnc2c1ncn2C1OC(COP(=O)(O)O)C(O)C1O` (stereo unspecified): the T/C (endpoint: median survival time, dose: 100.0 mg/kg/injection, schedule: Q01DX009 (ip), vehicle: saline) is 109 % of control and 110 % of control and 112 % of control; the T/C (endpoint: median survival time, dose: 200.0 mg/kg/injection, schedule: Q01DX009 (ip), vehicle: saline) was 97 % of control and 104 % of control and 115 % of control; the T/C (endpoint: median survival time, dose: 400.0 mg/kg/injection, schedule: Q01DX009 (ip), vehicle: saline) was 96 % of control and 101 % of control and 117 % of control; the T/C (endpoint: median survival time, dose: 800.0 mg/kg/injection, schedule: Q01DX009 (ip), vehicle: saline) is 101 % of control and 108 % of control.
For the compound `CC(C)(CO)COC(=O)NC1=C(N2CC2)C(=O)C(NC(=O)OCC(C)(C)CO)=C(N2CC2)C1=O`, the T/C is 102 % of control and 105 % of control (endpoint: median survival time, dose: 0.75 mg/kg/injection, schedule: Q01DX009 (ip), vehicle: water); 103 % of control and 108 % of control (endpoint: median survival time, dose: 1.5 mg/kg/injection, schedule: Q01DX009 (ip), vehicle: water); 105 % of control and 110 % of control (endpoint: median survival time, dose: 3.0 mg/kg/injection, schedule: Q01DX009 (ip), vehicle: water); 110 % of control and 113 % of control (endpoint: median survival time, dose: 6.0 mg/kg/injection, schedule: Q01DX009 (ip), vehicle: water); 119 % of control and 113 % of control (endpoint: median survival time, dose: 12.0 mg/kg/injection, schedule: Q01DX009 (ip), vehicle: water).
Take `Nc1ccn([C@@H]2C=C(CO)[C@@H](O)[C@H]2O)c(=O)n1`: the T/C is, setting by setting: (endpoint: median survival time, dose: 0.44 mg/kg/injection, schedule: Q01DX009 (ip), vehicle: saline) 103 % of control; (endpoint: median survival time, dose: 0.67 mg/kg/injection, schedule: Q01DX009 (ip), vehicle: saline) 114 % of control; (endpoint: median survival time, dose: 2.25 mg/kg/injection, schedule: Q01DX009 (ip), vehicle: saline) 120 % of control; (endpoint: median survival time, dose: 3.76 mg/kg/injection, schedule: Q01DX009 (ip), vehicle: saline) 92 % of control.
As for `O=C(O)CC(NC(=O)CP(=O)(O)O)C(=O)O` (stereo unspecified), the T/C reads like this: (endpoint: mean survival time, dose: 200.0 mg/kg/injection, schedule: Q01DX009 (ip), vehicle: saline) 100 % of control; (endpoint: mean survival time, dose: 225.0 mg/kg/injection, schedule: Q01DX009 (ip), vehicle: saline) 108 % of control; (endpoint: mean survival time, dose: 250.0 mg/kg/injection, schedule: Q01DX009 (ip), vehicle: saline) 101 % of control.
With `CCC(=O)O[C@H]1CC[C@H]2[C@@H]3CC[C@H]4CC(=O)[C@H](C)C[C@]4(C)[C@H]3CC[C@]12C`, the T/C is, setting by setting: (endpoint: median survival time, dose: 8.0 mg/kg/injection, schedule: Q01DX009 (ip), vehicle: saline with Tween-80) 105 % of control and 115 % of control; (endpoint: median survival time, dose: 16.0 mg/kg/injection, schedule: Q01DX009 (ip), vehicle: saline with Tween-80) 105 % of control; (endpoint: median survival time, dose: 32.0 mg/kg/injection, schedule: Q01DX009 (ip), vehicle: saline with Tween-80) 105 % of control; (endpoint: median survival time, dose: 64.0 mg/kg/injection, schedule: Q01DX009 (ip), vehicle: saline with Tween-80) 122 % of control and 101 % of control; (endpoint: median survival time, dose: 128.0 mg/kg/injection, schedule: Q01DX009 (ip), vehicle: saline with Tween-80) 103 % of control; (endpoint: median survival time, dose: 256.0 mg/kg/injection, schedule: Q01DX009 (ip), vehicle: saline with Tween-80) 104 % of control. Moreover, the T/C (endpoint: median survival time, dose: 512.0 mg/kg/injection, schedule: Q01DX009 (ip), vehicle: saline with Tween-80) is 121 % of control and 103 % of control.
Turning to `Nc1nc(=S)c2[nH]cnc2[nH]1`, the T/C was 102 % of control (endpoint: mean survival time, dose: 0.13 mg/kg/injection, schedule: Q01DX009 (ip), vehicle: other); 111 % of control (endpoint: mean survival time, dose: 0.25 mg/kg/injection, schedule: Q01DX009 (ip), vehicle: other); 108 % of control (endpoint: mean survival time, dose: 0.5 mg/kg/injection, schedule: Q01DX009 (ip), vehicle: other); 114 % of control (endpoint: mean survival time, dose: 1.0 mg/kg/injection, schedule: Q01DX009 (ip), vehicle: other).
Regarding `S=P(N1CC1)(N1CC1)N1CC1`, the T/C reads like this: (endpoint: mean survival time, dose: 0.25 mg/kg/injection, schedule: Q01DX009 (ip), vehicle: saline) 100 % of control and 104 % of control and 112 % of control; (endpoint: mean survival time, dose: 0.5 mg/kg/injection, schedule: Q01DX009 (ip), vehicle: saline) 102 % of control and 106 % of control (2×); (endpoint: mean survival time, dose: 1.0 mg/kg/injection, schedule: Q01DX009 (ip), vehicle: saline) 104 % of control and 106 % of control and 114 % of control; (endpoint: mean survival time, dose: 2.0 mg/kg/injection, schedule: Q01DX009 (ip), vehicle: saline) 124 % of control; (endpoint: mean survival time, dose: 4.0 mg/kg/injection, schedule: Q01DX009 (ip), vehicle: saline) 158 % of control and 162 % of control and 168 % of control; (endpoint: mean survival time, dose: 8.0 mg/kg/injection, schedule: Q01DX009 (ip), vehicle: saline) 86 % of control.
Consider `Cc1c2ccncc2c(C)c2c1[nH]c1ccccc12`, for which the T/C is 157 % of control (endpoint: mean survival time, dose: 10.0 mg/kg/injection, schedule: Q01DX009 (ip), vehicle: saline) and 157 % of control (endpoint: mean survival time, dose: 20.0 mg/kg/injection, schedule: Q01DX009 (ip), vehicle: saline).
As for `Nc1nc(=S)c2ncn(C3CC(O)C(CO)O3)c2[nH]1` (stereo unspecified), the T/C is 114 % of control (endpoint: mean survival time, dose: 2.5 mg/kg/injection, schedule: Q01DX001 (ip), vehicle: steriod suspending solution); 118 % of control (endpoint: mean survival time, dose: 10.0 mg/kg/injection, schedule: Q01DX001 (ip), vehicle: steriod suspending solution); 120 % of control (endpoint: mean survival time, dose: 20.0 mg/kg/injection, schedule: Q01DX001 (ip), vehicle: steriod suspending solution).

The record behind these values is PubChem BioAssay AID260 (DTP/NCI, 2004).
